# Data from PMC3734245, “Surface Display and Bioactivity of Bombyx mori Acetylcholinesterase on Pichia pastoris” (PLoS ONE, 2013).
# Molecular target: T1, displayed BmAChE (Bombyx mori, UniProt A5A2M5)
# T1 construct: signal peptide and hydrophobic C-terminal tail removed; N-terminal FLAG tag; (Gly4Ser)3 linker to S. cerevisiae AGalpha1 anchor at C-terminus; bmace about 1900 bp; primers encode N-terminal RSWANH and C-terminal TGPYSS
# Assay: Ellman assay, yeast cell suspension displaying the enzyme
# Type: cell-based
# T1 sequence (A5A2M5 entry or part of it): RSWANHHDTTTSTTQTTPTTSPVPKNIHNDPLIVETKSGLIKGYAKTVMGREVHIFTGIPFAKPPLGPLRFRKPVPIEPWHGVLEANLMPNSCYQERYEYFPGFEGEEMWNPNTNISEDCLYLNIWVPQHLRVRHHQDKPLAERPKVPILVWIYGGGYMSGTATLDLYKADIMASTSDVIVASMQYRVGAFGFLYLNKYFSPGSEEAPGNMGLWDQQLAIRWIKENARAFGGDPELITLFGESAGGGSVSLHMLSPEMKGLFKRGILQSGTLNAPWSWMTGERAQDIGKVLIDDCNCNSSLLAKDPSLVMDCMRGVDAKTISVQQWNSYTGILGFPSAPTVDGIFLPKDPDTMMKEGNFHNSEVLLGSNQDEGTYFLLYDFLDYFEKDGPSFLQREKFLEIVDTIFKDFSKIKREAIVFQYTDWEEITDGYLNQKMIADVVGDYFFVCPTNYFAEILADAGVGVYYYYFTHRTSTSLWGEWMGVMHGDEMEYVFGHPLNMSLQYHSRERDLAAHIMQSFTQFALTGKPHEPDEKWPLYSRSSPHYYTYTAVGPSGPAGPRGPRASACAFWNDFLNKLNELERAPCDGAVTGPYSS
row,Structure (SMILES),IC50 [µM]
1,CNC(=O)Oc1ccc2c(c1)[C@]1(C)CCN(C)[C@@H]1N2C [eserine],0.0417
2,CNC(=O)ON=C(C)SC [methomyl],0.0641
3,CCOC(=O)CC(SP(=S)(OC)OC)C(=O)OCC (stereo not shown) [malathion],1.41
4,COP(N)(=S)Oc1ccccc1C(=O)OC(C)C (stereo not shown) [isocarbophos],0.91
5,CNC(=O)CSP(=S)(OC)OC [dimethoate],1.14
6,CCOP(=S)(OCC)Oc1ccc([N+](=O)[O-])cc1 [parathion],1.13
7,CCCCN(CCCC)SN(C)C(=O)Oc1cccc2c1OC(C)(C)C2 [carbosulfan],0.113
8,COP(=O)(OC)C(O)C(Cl)(Cl)Cl (stereo not shown) [trichlorphon],0.24
9,CNC(=O)Oc1ccccc1C(C)C [isoprocarb],0.0111
10,COP(=O)(OC)OC=C(Cl)Cl [dichlorphos],0.903
11,CNC(=O)Oc1cc(C)c(SC)c(C)c1 [methiocarb],0.0658
12,CNC(=O)Oc1cccc2c1OC(C)(C)C2 [carbofuran],0.00192
13,COP(N)(=O)SC (stereo not shown) [methamidophos],1.07
